One data set is described as follows: MT-4 cytotoxicity assay. The data set is classed as cell-based. The note with it: human, MT-4 cells (uninfected), 4-5 days, read-out: CC50 MT4. As for the experimental part:
Cytotoxicity of the compound of Formula I and compounds 1, 2, and 6 was determined in uninfected cells using the cell viability reagent in a similar fashion as described before for other cell types (Cihlar et al., Antimicrob Agents Chemother. 2008, 52(2):655-65.). HEp-2 (1.5×10^3 cells/well) and MT-4 (2×10^3 cells/well) cells were plated in 384-well plates and incubated with the appropriate medium containing 3-fold serially diluted compound ranging from 15 nM to 100,000 nM. Cells were cultured for 4-5 days at 37° C. Following the incubation, the cells were allowed to equilibrate to 25° C., and cell viability was determined by adding Cell-Titer Glo viability reagent. The mixture was incubated for 10 min, and the luminescence signal was quantified using an Envision plate reader. Untreated cell and cells treated at 2 μM puromycin (Sigma, St. Louis, MO) serve as 100% and 0% cell viability control, respectively.

A further data set deals with RSV strain A2. In words: RSV HEp-2 EC50, infectious cytopathic cell protection assay. It counts as cell-based. The note with it: for EC50: human respiratory syncytial virus, 96 h, RSV A2 in HEp-2 cells, 4 days, Cell TiterGlo. As for the experimental part:
Antiviral activity against RSV is determined using an infectious cytopathic cell protection assay in HEp-2 cells. In this assay, compounds inhibiting viral infection and/or replication produce a cytoprotective effect against the virus-induced cell killing that can be quantified using a cell viability reagent. The techniques used here are novel adaptations of methods described in published literature (Chapman et al., Antimicrob Agents Chemother. 2007, 51(9):3346-53.).
HEp-2 cells are obtained from ATCC (Manassas, VI) and maintained in MEM media supplemented with 10% fetal bovine serum and penicillin/streptomycin. Cells are passaged twice a week and kept at subconfluent stage. Commercial stock of RSV strain A2 (Advanced Biotechnologies, Columbia, MD) is titered before compound testing to determine the appropriate dilution of the virus stock that generates desirable cytopathic effect in HEp-2 cells.
For antiviral tests, HEp-2 cells are grown in large cell culture flasks to near confluency but not fully so. The compounds to be tested are prediluted in DMSO in 384-well compound dilution plates, either in an 8 or 40 sample per plate standardized dose response format. 3-fold serial dilution increments of each test compound are prepared in the plates and test samples are transferred via acoustic transfer apparatus (Echo, Labcyte) at 100 nL per well into cell culture assay 384-well plates. Each compound dilution is transferred in single or quadruplicate samples into dry assay plates, which are stored until assay is ready to go. The positive and negative controls are laid out in opposite on ends of the plate in vertical blocks (1 column).
Subsequently, an infectious mixture is prepared using an appropriate dilution of virus stock previously determined by titration with cells at a density of 50,000/mL and 20 μL/well is added to test plates w/compounds via automation (uFlow, Biotek). Each plate includes negative and positive controls (16 replicates each) to create 0% and 100% virus inhibition standards, respectively. Following the infection with RSV, testing plates are incubated for 4 days in a 37° C. cell culture incubator. After the incubation, a cell viability reagent, Cell TiterGlo (Promega, Madison, WI) is added to the assay plates, which are incubated briefly, and a luminescent readout is measured (Envision, Perkin Elmer) in all the assay plates. The RSV-induced cytopathic effect, percentage inhibition, is determined from the levels of remaining cell viability. […] Various potent anti-RSV tool compounds are used as positive controls for antiviral activity.
On the technique in general: Protection from cytopathic effect is a common read-out in antiviral testing.

Another data set has as its system HRV1a. Description: HRV1A HeLa EC50. It counts as cell-based, human rhinovirus. Particulars: for EC50: Human rhinovirus sp., HRV1A, HeLa, 96 h, read-out: HRV1A HeLa EC50. As for the experimental part:
H1-HeLa cells, cultured in complete RPMI 1640 medium containing 10% heat-inactivated FBS and 1% Penicillin/Streptomycin, were seeded in 96 well plates at 5000 cells/well one day prior to compound dosing and infection. The antiviral activity of each compound was measured in triplicate. Compounds were added directly to the cell cultures in serial 3-fold dilutions using the HP300 digital dispenser (Hewlett Packard, Palo Alto, CA) immediately prior to infection. The plates were transferred to BSL-2 containment and 100 μL of 1/4000 dilution of HRV1a virus stock was added to each well containing cells and serially diluted compounds. Each plate included 6 wells of infected untreated cells and 6 wells of cells containing 5 μM Rupintrivir that served as 0% and 100% virus inhibition control, respectively. Following the infection, test plates were incubated for 96 h in a tissue culture incubator set to 37° C./5% CO2. Following incubation, the H1-HeLa cells were removed from incubation and allowed to equilibrate to 25° C. Cell viability was determined by removing 100 μL of culture medium and adding 100 μL of Cell-Titer Glo viability reagent. The mixtures were incubated on a shaker for 10 minutes at 25° C., and the luminescence signal was quantified on an Envision luminescence plate reader.

Data set [1] can be described thus: Stability assay in cynomolgus monkey hepatic S9 fractions. It counts as in vitro ADME. The note with it: 37° C., NADPH and UDPGA, read-out: Cyno HepS9 t1/2. As for the experimental part: For S9 stability, the compounds were incubated at 2 μM in cynomolgus monkey or human hepatic S9 fractions for up to 90 min at 37° C. in the presence of NADPH and UDPGA (Phase I and Phase II cofactor, Sigma-Aldrich). At desired time points following compound addition, samples were quenched with 9 volumes of an aqueous solution containing internal standard, 50% acetonitrile and 25% methanol. Sample plates were centrifuged at 3000 g for 30 min, and 10 μL of the resulting solution was analyzed by LC-MS/MS. Data (analyte to internal standard peak area ratio) were plotted on a semi log scale and fitted using an exponential fit. The half-life (T1/2) was determined assuming first order kinetics.

The next data set is described as follows: SAEC cytotoxicity assay. It counts as cell-based. Particulars: human, small airway epithelial cells (SAEC). As for the experimental part:
Human Small Airway Epithelial cells (SAEC) were purchased from Lonza (Walkersville, MD, Cat #CC-2547) and cultured in supplemented Small Airway Epithelial Cell Growth Medium (SAGM) (lonza, Walkersville, MD, Cat #CC-3118). The cells were passaged 1-2 times per week to maintain <80% confluency per manufacturer's protocol. The SAEC cells were discarded after 5 passages in culture.
Following attachment, 3-fold serially diluted compound was added using a Hewlett-Packard D300 Digital Dispenser (Hewlett Packard, Palo Alto, CA) in triplicate. The final concentration of DMSO was normalized to 1.0%. Following compound addition, NHBE or SAEC cells were incubated at 37° C. for 5 days. The NHBE or SAEC cells were then allowed to equilibrate to 25° C. and cell viability was determined by removing 100 μL of culture medium and adding 100 μL of Cell-Titer Glo viability reagent (Promega, Madison, WI). The mixtures were incubated for 10 minutes at 25° C., and the luminescence signal was quantified on an Envision luminescence plate reader (PerkinElmer, Waltham, MA). Percent viability values were determined by normalization to 1.0% DMSO-only control wells with background luminescent signal subtracted out.

The values below come from patent US20250034186A1, “ANTIVIRAL COMPOUNDS” (priority 2020, published 2025).

In general, CC50 refers to the concentration that lowers cell viability or growth by half. For orientation: EC50 means the midpoint of the concentration-response curve. Consider `CCOC(=O)[C@H](C)NP(=O)(OC[C@@]1(C#N)O[C@@H](c2ccc3c(N)ncnn23)[C@H](O)[C@@H]1O)Oc1ccccc1` (stereo partly drawn) [Compound 1, reference compound], for which the CC50 in the data set “MT-4 cytotoxicity assay” was 52400 nM. For the same compound, the 50% effective concentration (EC50) in the data set with RSV strain A2 was 352 nM; in the data set on HRV1a, 409 nM.

As to `CCC(CC)COC(=O)[C@H](C)NP(=O)(OC[C@@]1(C#N)O[C@@H](c2ccc3c(N)ncnn23)[C@H](O)[C@@H]1O)Oc1ccccc1` (stereo partly drawn) [Compound 2, reference compound], the half-life at 2 μM in data set [1] worked out at 3 min. Further, the CC50 in the data set “MT-4 cytotoxicity assay” is over 43700 nM. Besides, in “SAEC cytotoxicity assay”, the 50% cytotoxic concentration (CC50) at 5 days worked out at 28300 nM. Also, the EC50 with RSV strain A2 is 69 nM; in the data set on HRV1a, 97 nM.

Consider `CCC(CC)COC(=O)[C@H](C)N[P@](=O)(OC[C@@]1(C#N)O[C@@H](c2ccc3c(N)ncnn23)[C@H](O)[C@@H]1O)Oc1ccccc1` [Compound 6, 2-ethylbutyl ((S)-(((2R,3S,4R,5S)-5-(4-aminopyrrolo[2,1-f][1,2,4]triazin-7-yl)-2-cyano-3,4-dihydroxytetrahydrofuran-2-yl)methoxy)(phenoxy)phosphoryl)alaninate], for which the half-life at 2 μM in data set [1] was determined as 2 min. For the same compound, the half-maximal cytotoxic concentration (CC50) in the data set “MT-4 cytotoxicity assay” was determined as 38800 nM. For the same compound, the 50% cytotoxic concentration (CC50) at 5 days in the data set “SAEC cytotoxicity assay” was 27200 nM. Besides, the “times more potent than compound 7, RSV HEp-2” value in the data set with RSV strain A2 (EC50 ratio vs compound 7) was 4.8 times. For the same compound, in the data set on RSV strain A2, a half-maximal response (EC50) required 26 nM.

On to `C[C@H](N[P@](=O)(OC[C@@]1(C#N)O[C@@H](c2ccc3c(N)ncnn23)[C@H](O)[C@@H]1O)Oc1ccccc1)C(=O)OC1CCCCC1` [Formula I, cyclohexyl ((S)-(((2R,3S,4R,5S)-5-(4-aminopyrrolo[2,1-f][1,2,4]triazin-7-yl)-2-cyano-3,4-dihydroxytetrahydrofuran-2-yl)methoxy)(phenoxy)phosphoryl)-L-alaninate], for which the half-life at 2 μM in data set [1] amounted to 26 min. Also, the half-maximal cytotoxic concentration (CC50) in “MT-4 cytotoxicity assay” amounted to 56200 nM. Also, it took 123000 nM to reach half-maximal cytotoxicity in the data set “SAEC cytotoxicity assay” (CC50 at 5 days). Besides, the “times more potent than the compound of Formula Ib, RSV HEp-2” value in the data set on RSV strain A2 (EC50 ratio vs Formula Ib) stood at 31.1 times. The “more potent relative to compound 1, RSV Hep-2” value in the data set with RSV strain A2 (EC50 ratio vs compound 1) was “about 4.0”. Besides, the “times more potent relative to compound 3, RSV Hep-2” value in the data set on RSV strain A2 (EC50 ratio vs compound 3) is given as “about 5 times”. For the same compound, the “times more potent relative to compound 4, RSV Hep-2” value with RSV strain A2 (EC50 ratio vs compound 4) is on record as “about 3.9 times”. In the data set on RSV strain A2 (EC50 ratio vs compound 5), the “times more potent relative to compound 5, RSV Hep-2” value is given as “about 19.8 times”. Moreover, the 50% effective concentration (EC50) in the data set with RSV strain A2 was 88 nM; in the data set on HRV1a, 8 nM. Besides, the “times more potent relative to compound 1, HRV1A HeLa” value with HRV1a (EC50 ratio vs compound 1) is recorded as about 51.1 times. For the same compound, the “times more potent compared to compound 2, HRV1A HeLa” value in the data set on HRV1a (EC50 ratio vs compound 2) was “about 12.1 times”. The “times more potent relative to compound 3, HRV1A HeLa” value in the data set with HRV1a (EC50 ratio vs compound 3) is given as “about 91.9 times”. Also, the “times more potent relative to compound 5, HRV1A HeLa” value with HRV1a (EC50 ratio vs compound 5) is recorded as “about 203.1 times”.
